Results on two compounds are retold here after US20250382631A1, “PROTAC-CID SYSTEMS FOR USE IN MULTIPLEX GENE REGULATION” (William Marsh Rice University, priority 2022, published 2025).

Assay [1] addresses wild-type FKBP12 (Homo sapiens, UniProt P62942). The conditions noted are these: refs (32, 36); cited from earlier work.
Assay [2] concerns endogenous HEK3 locus in HEK293T cells. The assay can be described thus: Inducible prime editing, His6 Tag insertion (Sanger sequencing, TIDE). The format is cell-based, human. The note with it: high TRE3G-driven PE2 plasmid dose (120 ng per well), 100 nM dTAG-13, 3 days, FIG. 3H. How it is done:
Prime editing measurement. HEK293T cells were seeded into 96 well plates (Corning no. 3598). When the cells reach 20% confluency, 265 ng to 290 ng plasmids (See Table 1 for plasmid dosage used in each condition) were firstly mixed with 25 μL DMEM. 0.5 μL Lipofectamine 2000 (Life Technology no. 11661089) was incubated with 25 μL DMEM for 5 min. Next, plasmid solution was mixed with the Lipofectamine 2000 solution for 20 min and added into the cells gently. After 12 h, the supernatants were changed with fresh 10% FBS (Thermo Fisher Scientific no. 10437028) DMEM medium (Thermo Fisher Scientific no. 10569044) supplied with Puromycin (10 μg/mL Thermo Fisher Scientific no. A1113803) and 100 nM dTAG-13 (TOCRIS no. 6605/5) or DMSO (Sigma, no. D8418). 3 days post-induction, the supernatant was removed and supplied with 100 μL lysis buffer (10 mM tris-HCl (pH=7.5), 0.05% SDS, and proteinase K (25 μg/mL, Thermo Fisher Scientific no. 01169965)) followed by 37° C. 1 h, 58° C. 30 min and inactivated at 95° C. for 20 min. […] The insertion efficiency was analyzed online in TIDE (https://tide.nki.nl/) (Brinkman et al., 2018) with the setting (left boundary=100, Decomposition window (115-685 bp), Indel size range (28 bp), P-value threshold=0.001).

Assay [3] has as its system luciferase expression in the liver of FVB mice injected with Virus a and Virus b. The experiment in a line: In vivo PROTAC-CID gene activation via AAV, IVIS bioluminescence imaging. How it is done:
(§1) AAV production and Mouse for in vivo delivery. […] FVB mice were purchased from the Jackson Laboratory.
IVIS imaging system and quantification. Luciferase […] intensity was measured by the IVIS imaging system (PerkinElmer). Mice were anesthetized with a mixture of isoflurane and oxygen. and then intraperitoneally (i.p.) injected with D-luciferin (15 mg/ml, GoldBio no. LUCNA-100). 5 mins after the D-luciferin injection, mice were imaged with IVIS imaging system. Quantitative analysis of imaging signals (luminescence counts) was processed by Living Imaging software (PerkinElmer).

In assay [4] the target is T1, endogenous BRD4 (Mus musculus, UniProt Q9ESU6).
T1 construct: Immunoblot analysis of endogenous long isoform BRD4 (BRD4L) after 50 mg/kg MZ1 treatment i.p; from tissue; host or cells: liver of FVB mice (AAV-infected, MZ1-treated)
The experiment in a line: Immunoblot of endogenous BRD4 in mice liver tissue. The format is in vivo, FVB mice. The note with it: 50 mg/kg MZ1 i.p., FIG. 21.
Source text: Immunoblots and RT-qPCR. Mice liver tissues or culture cells were lysed in RIPA buffer (Abcam no. ab156034) supplemented with phosphatase inhibitor (Thermo Fisher Scientific no. PIA32957) and protease inhibitors (Fishers cientific no. A32965). Lysates were resolved by 10% Tris-glycine SDS-PAGE, transferred to PVDF membrane (Bio-Rad no. 1620177), and blotted with antibodies BRD4 (Abcam, ab128874), GAPDH (Cell Signaling Technology, 2118L), luciferase (ABclonal, requested), Ran (ABclonal, A0976), Hsp90 (Cell Signaling Technology, 4874). Images were acquired using LumiQuant AC600 (Acuronbio Technology Inc), quantification analysis was processed by ImageJ software. Trizol reagent (Sigma no. T9424) was used to extract total RNA from liver. RNAs were purified using RNeasy Mini kit (QIAGEN no. 4106). The quality and concentration of total RNA were checked on NanoDrop™ 2000/2000c Spectrophotometers (Thermo Fisher Scientific no. ND2000LAPTOP). Reverse transcription of total RNA was performed using a Applied Biosystems™ High-Capacity cDNA Reverse Transcription Kit (Thermo Fisher Scientific no. 4368813) and qPCR was conducted with SYBR Green Master Mix (Abclonal no. RK21203) on QuantStudio 6 Real-time PCR system (Thermo Fisher Scientific).
as §1
In general terms: A western blot detects proteins with antibodies after separation by electrophoresis.

The structures appear in SMILES notation.

wild-type FKBP12, sequence (P62942 whole entry, species assumed): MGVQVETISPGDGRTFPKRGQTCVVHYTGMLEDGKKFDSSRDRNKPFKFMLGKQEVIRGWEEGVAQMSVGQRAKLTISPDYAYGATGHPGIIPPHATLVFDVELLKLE

For the compound `CC[C@H](C(=O)N1CCCC[C@H]1C(=O)O[C@H](CCc1ccc(OC)c(OC)c1)c1ccccc1OCC(=O)NCCCCCCOc1cccc2c1C(=O)N(C1CCC(=O)NC1=O)C2=O)c1cc(OC)c(OC)c(OC)c1` (some centres unmarked) [dTAG-13], the “degradation of wild-type FKBP12” value in assay [1] is “do not degrade wild-type FKBP12”. For the same compound, in assay [2], the “prime editing efficiency (His6 Tag insertion)” value is on record as “more than 20%”.

Take `Cc1ncsc1-c1ccc(CNC(=O)[C@@H]2C[C@@H](O)CN2C(=O)[C@@H](NC(=O)COCCOCCOCCNC(=O)C[C@@H]2N=C(c3ccc(Cl)cc3)c3c(sc(C)c3C)-n3c(C)nnc32)C(C)(C)C)cc1` [MZ1]: the “increase of the luciferase expression in the liver compared with the group without MZ1” value in assay [3] (10 mg/kg MZ1 intraperitoneally, 25 days after AAV, imaging 6 h post-MZ1, FIG. 4E) was around 7 fold. The “Fluc expression after second MZ1 injection” value in assay [3] (second injection ten days after the first, 50 mg/kg i.p., FIGS. 4G and 4H) was “elevated expression of Fluc with a comparable gene activation level as the first administration”. In addition, in assay [4], the “expression of BRD4 in mice liver tissue” value is “did not observe a significant change in the expression of BRD4”.
